In brackets after ≈: the same amount, converted by molar mass. Activity calls are given as the source filed them. The calls are words filed in the database; no cut-off is given here. Square brackets hold non-standard residues; d marks the D form. Peptide text beside a SMILES is read from it. * marks the point of attachment. X1 = COC1=CC(=O)N(C(=O)[C@@H](O*)C(C)C)[C@H]1Cc1ccccc1; NMe2Val = CC(C)[C@@H](C(=O)*)N(C)C; NMeV = CN[C@H](C(=O)O)C(C)C
Tests used:
Homo sapiens = species: Homo sapiens; experiment: Anticancer activity was determined by the inhibition of colony formation in liquid culture of KB human epidermoid carcinoma cells up to the concentration 31.6 ug/mL; NI means No inhibition; type: functional
L1210 = experiment: Anticancer activity was determined by the inhibition of colony formation in liquid culture of L-1210 leukemia cells up to the concentration 31.6 ug/mL; NI means No inhibition; type: functional, cell-based; conditions: Mus musculus
LNCaP = experiment: Anticancer activity was determined by the inhibition of colony formation in liquid culture of up to the concentration 31.6 ug/mL; NI means No inhibition; type: functional, cell-based; conditions: Homo sapiens
SK-OV-3 = experiment: Anticancer activity was determined by the inhibition of colony formation in liquid culture of SK-OV-3 ovarian cancer cells up to the concentration 31.6 ug/mL; NI means No inhibition; type: functional, cell-based; conditions: Homo sapiens
P388 = experiment: Anticancer activity against lymphocytic leukemia P388 cells was determined; type: functional; conditions: Mus musculus, read-out: ED50 (the source's name)

| Structure (SMILES) | Activity (Homo sapiens) | Activity (L1210) | Activity (LNCaP) | Activity (SK-OV-3) | EC50 (P388) |
| --- | --- | --- | --- | --- | --- |
| CC(=O)N(CC(=O)N(CC(=O)N1CCC[C@H]1C(=O)N1CCC[C@H]1C(=O)N(CC(=O)N(CC(=O)N(C(C)C)C(C)C)C(C)C)C(C)C)C(C)C)Cc1ccccc1 | inactive | inactive | inactive | inactive | – |
| CC(=O)N(CC(=O)N(CC(=O)N1CCCC1C(=O)N1CCC[C@H]1C(=O)N(CC(=O)N(CC(=O)N(C(C)C)C(C)C)C(C)C)C(C)C)C(C)C)Cc1ccccc1 (single isomer, unassigned) | inactive | inactive | inactive | inactive | – |
| CC(=O)N(CC(=O)N(CC(=O)N1CCC[C@@H]1C(=O)N1CCC[C@@H]1C(=O)N(CC(=O)N(CC(=O)N(C(C)C)C(C)C)C(C)C)C(C)C)C(C)C)Cc1ccccc1 (single isomer, unassigned) | inactive | inactive | inactive | inactive | – |
| CC(=O)N(CC(=O)N(CC(=O)N1CCC[C@@H]1C(=O)N1CCC[C@@H]1C(=O)N(CC(=O)N(CC(=O)N(C(C)C)C(C)C)C(C)C)Cc1ccccc1)C(C)C)Cc1ccccc1 (single isomer, unassigned) | inactive | inactive | inactive | inactive | – |
| CC(=O)N(CC(=O)N(CC(=O)N1CCC[C@@H]1C(=O)N1CCC[C@@H]1C(=O)N(CC(=O)N(CC(=O)O)C(C)C)C(C)C)C(C)C)Cc1ccccc1 (single isomer, unassigned) | inactive | inactive | inactive | inactive | – |
| CC(=O)N(CC(=O)N(CC(=O)N1CCC[C@H]1C(=O)N1CCCC1C(=O)N(CC(=O)N(CC(=O)N(C(C)C)C(C)C)C(C)C)C(C)C)C(C)C)Cc1ccccc1 (single isomer, unassigned) | inactive | inactive | inactive | inactive | – |
| CC(C)N(CC(=O)N(C(C)C)C(C)C)C(=O)CN(C(=O)[C@H]1CCCN1C(=O)[C@H]1CCCN1C(=O)OCc1ccccc1)C(C)C (single isomer, unassigned) | inactive | inactive | inactive | inactive | – |
| CC(C)N(CC(=O)O)C(=O)CN(C(=O)[C@H]1CCCN1C(=O)[C@H]1CCCN1C(=O)CN(C(=O)CNCc1ccccc1)C(C)C)C(C)C (single isomer, unassigned) | inactive | inactive | inactive | inactive | – |
| COC1=CC(=O)N(C(=O)[C@@H](OC(=O)[C@@H]2CCCN2C(=O)[C@@H]2CCCN2C(=O)[C@H](C(C)C)N(C)C(=O)[C@@H](NC(=O)[C@H](C(C)C)N(C)C)C(C)C)C(C)C)[C@H]1Cc1ccccc1 [DOLASTATIN 15] (NMe2Val-V[NMeV]PP-X1) | – | – | – | – | 2.4 ng/mL (≈ 2.87 nM) |
| CC[C@H](C)[C@@H]([C@@H](CC(=O)N1CCC[C@H]1[C@H](OC)[C@@H](C)C(=O)N[C@@H](Cc1ccccc1)c1nccs1)OC)N(C)C(=O)[C@@H](NC(=O)[C@H](C(C)C)N(C)C)C(C)C [DOLASTATIN-10] | – | – | – | – | 0.1 ng/mL (≈ 0.127 nM) |

From ChEMBL document CHEMBL1131558, “Synthesis of Dolastatin 15 mimetic peptoids” (1998)
